From patent US11478479B2, “Dosing with an azolopyrimidine compound” (ARCUS BIOSCIENCES, INC., priority 2018, dated 2022)

Tests used:
[1] = Single ascending dose (SAD) pharmacokinetics, Compound I in plasma; format: in vivo, human
From the text: The SAD part consists of 5 groups of 8 healthy young male and female participants, gender balanced to the extent possible, receiving a single oral dose in Groups 1 to 4 or 2 doses in Group 5 of Compound I or placebo (randomized 3:1, active vs placebo, respectively). All participants in the SAD portion of the study must be fasting prior to receiving Compound I. All groups will be evaluated based on pharmacokinetic (PK), safety and tolerability prior to escalation to the next highest group or starting the MAD portion of the study.
For Groups 1 to 4, the study drug will be administered with the participant in the upright position. Study drug will be administered to participants between 08:00 and 9:00 hours in the morning. Before the morning dose, participants will be fasted overnight for at least 10 hours following a light supper on the evening before. Within a period, dosing should be at the same time each day 15 minutes. The study drug will be swallowed together with 240 mL tap water. The study drug should not be chewed. Fasting will continue for a period of 4 hours after drug administration. During fasting, no fluids are allowed except water; however, water is not allowed from 2 hours pre-dose until 1 hour post-dose. When not fasting, non-caffeinated fluids are allowed ad libitum. […]

A2aR = target: T1, A2aR (Homo sapiens, UniProt P29274); test: pCREB (marker for A2R inhibition) by flow cytometry in blood CD8+ T cells stimulated ex vivo with 5 μM NECA
T1 construct: all subjects responded to 5 μM NECA by increasing the levels of pCREB in their blood CD8+ T cells; endogenous in cells; host or cells: blood CD8+ T cells of trial subjects (ex vivo)
From the text: The assessment of pCREB (a marker for A2R inhibition) by flow cytometry will be conducted during the study.

[2] = Safety and tolerability in healthy volunteers; format: in vivo, human; conditions: doses of up to 150 mg
From the text: Safety and tolerability assessments will consist of adverse events (AEs), clinical laboratory, vital signs, 12-lead ECG, telemetry, physical examination, Bond and Lader Visual Analog Scale (VAS) of Mood and Alertness, and Digit Symbol Substitution Test (DSST). Assessments will be performed in accordance with the schedules of assessments.

T1 sequence (P29274 whole entry): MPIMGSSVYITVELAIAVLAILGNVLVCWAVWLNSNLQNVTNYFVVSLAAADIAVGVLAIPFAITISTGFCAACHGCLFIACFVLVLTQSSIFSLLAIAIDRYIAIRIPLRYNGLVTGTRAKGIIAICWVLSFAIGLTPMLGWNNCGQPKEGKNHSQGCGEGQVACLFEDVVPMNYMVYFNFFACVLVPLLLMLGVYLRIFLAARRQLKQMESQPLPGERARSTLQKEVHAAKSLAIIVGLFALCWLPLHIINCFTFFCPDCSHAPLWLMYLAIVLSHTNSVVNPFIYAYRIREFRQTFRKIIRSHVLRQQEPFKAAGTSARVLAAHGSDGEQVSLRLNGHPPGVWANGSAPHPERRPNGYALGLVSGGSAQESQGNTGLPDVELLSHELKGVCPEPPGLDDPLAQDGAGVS

half-life ([1]; both sexes, human, plasma, healthy volunteers, following a single oral dose): ~20 h | plasma levels of Compound I with increased doses ([1]; healthy volunteers, 10, 25, 75 and 150 mg, FIG. 1): dose proportional increases | inhibition at 75 mg (A2aR; 75 mg once daily, in the presence of 5 μM NECA, projected from single-dose PK profiles, FIG. 2, read-out: expected inhibition of A2R at steady-state plasma levels): 90% | inhibition of NECA-mediated activation of A2aR (A2aR; 150 mg, 24 hours after dosing, 5 μM NECA): approximately 90% | pCREB response relative to the response seen pre-dose (A2aR; 150 mg, 24 hours after dosing, blood CD8+ T cells, 5 μM NECA, FIG. 3): approximately 10% | pCREB activation signal in response to NECA (A2aR; 150 mg, two hours after dosing, blood CD8+ T cells, 5 μM NECA, FIG. 3): no detectable increase in pCREB levels
Compound: Cc1c(C#N)cccc1-c1cc(-c2cn(Cc3cccc(C(C)(C)O)n3)nn2)nc(N)n1 [Compound I, 3-(2-amino-6-(1-((6-(2-hydroxypropan-2-yl)pyridin-2-yl)methyl)-1H-1,2,3-triazol-4-yl)pyrimidin-4-yl)-2-methylbenzonitrile]
safety issues [2]: no safety issues have been identified
